This note sets out measurements from patent US6693120B1, “Spray drying of thrombin inhibitors” (Abbott GmbH & Co. KG, priority 1999, dated 2004).

Holding throughout (assay type): physicochemical
Data set [1] in a line: Storage stability at 70° C., 1 bar in an open vessel (HPLC).
Data set [2] can be described thus: Hygroscopicity: weight gain on storage in desiccators at constant humidity. Further details: unit not given here. The note with it: vacuum-dried. As to the method:
To determine the hygroscopicity, samples of the dry active substance are stored in desiccators in which a constant humidity has been set by saturated salt solutions, at constant temperature. The weight change is determined by weighing at intervals of a few days. The weight gain is determined by the following formula: [formula]

A short description of data set [3]: HPLC content of the active substance after drying.

Turning to “N-((Hydroxycarbonyl)methylen)-(R)-cyclohexylalanyl-(S)-3,4-dehydroproline 6-Amidino-3-picolinylamide Dihydrochloride [Betaine × 2HCl]”, the “active substance content based on initial active substance content” value (“active substance content based” for short) in data set [1] (0 days) was 100 HPLC % areas; in data set [1] (7 days), 99.7 HPLC % areas; in data set [1] (14 days) it was 99.7 HPLC % areas.

For “N-((Hydroxycarbonyl)methylene)-(R)-cyclohexylalanyl-(S)-3,4-dehydroproline 6-Amidino-3-Picoli-nylamide [Betaine (n = 0)]”, the “active substance content based” value in data set [1] (0 days) stood at 100 HPLC % areas; in data set [1] (7 days), 92.5 HPLC % areas; in data set [1] (14 days) it was 88.6 HPLC % areas.

As for “N-((Hydroxycarbonyl)methylene)-(R)-cyclohexylalanyl-(S)-3,4-dehydroproline 6-Amidino-3-picolinylamide Hydrochloride [Betaine × HCl]”, the weight gain in data set [2] (45% R.H., 0 days) is listed as 0; in data set [2] (45% R.H., 3 days) it was 0.28; in data set [2] (45% R.H., 6 days), 0.31; in data set [2] (45% R.H., 9 days), 0.26; in data set [2] (45% R.H., 14 days) it was 0.23; in data set [2] (45% R.H., 21 days) it was 0.26. Further, the weight gain in data set [2] (65% R.H., 0 days) stood at 0; in data set [2] (65% R.H., 3 days), 3.50; in data set [2] (65% R.H., 6 days), 3.86; in data set [2] (65% R.H., 9 days), 3.59; in data set [2] (65% R.H., 14 days), 3.54; in data set [2] (65% R.H., 21 days), 3.45. Besides, the weight gain in data set [2] (75% R.H., 0 days) was found to be 0; in data set [2] (75% R.H., 3 days), 7.60; in data set [2] (75% R.H., 6 days) it was 9.31; in data set [2] (75% R.H., 9 days) it was 7.98; in data set [2] (75% R.H., 14 days), 7.84; in data set [2] (75% R.H., 21 days) it was 7.86. Also, the weight gain in data set [2] (86% R.H., 0 days) turned out to be 0; in data set [2] (86% R.H., 3 days), 15.51; in data set [2] (86% R.H., 6 days), 20.23; in data set [2] (86% R.H., 9 days) it was 16.66; in data set [2] (86% R.H., 14 days) it was 16.61; in data set [2] (86% R.H., 21 days), 16.14. Besides, the weight gain in data set [2] (93% R.H., 0 days) worked out at 0; in data set [2] (93% R.H., 3 days), 19.73; in data set [2] (93% R.H., 6 days), 20.34; in data set [2] (93% R.H., 9 days), 18.97; in data set [2] (93% R.H., 14 days), 19.11; in data set [2] (93% R.H., 21 days) it was 18.78. For the same substance, the figures for the “active substance content based” value in data set [1] (0 days), in data set [1] (7 days) and in data set [1] (14 days) were 100 HPLC % areas, 98.5 HPLC % areas and 97.5 HPLC % areas, respectively. Moreover, the “HPLC content of the active substance in % areas” value in data set [3] (spray dried) came out at 98.5%; in data set [3] (vacuum dried (60° C./12 h)) it was 97.8%. The byproducts entry in data set [3] (spray dried) is given as “no additional”; in data set [3] (vacuum dried (60° C./12 h)), “additional byproducts”.
